Assay results reported in PMC7067850, “Identification of highly potent and selective inhibitor, TIPTP, of the p22phox-Rubicon axis as a therapeutic agent for rheumatoid arthritis” (Scientific Reports, 2020).

What was measured:
[1] = tested on: ROS (O2− and H2O2); experiment: Flow cytometric measurement of ROS production in BMDMs; format: cell-based, mouse; conditions: LPS-primed BMDMs, compound 1 h, ATP 30 min (Fig. 3d)
Procedure: Intracellular ROS levels were measured by flow cytometry from cells cultured in serum-free medium and loaded with the redox-sensitive dye 2 µM dihydroethidium (DHE for O2^−; Calbiochem) or 10 µM 2′,7′-Dichlorofluorescin diacetate (DCFH-DA for H2O2; Calbiochem)[18],[19]. The cells were thoroughly and quickly washed with pulse spin and immediately acquired for analyses in FACSCalibur (BD Biosciences, San Jose, CA). The data were plotted using CellQuest software (BD Biosciences).
Figure 3 TIPTP robustly suppresses LPS/ATP-mediated Rubicon-p22phox interaction and ROS-mediated inflammation. (a) Structure of the TIPTP. (b) MTT assay for cell viability. BMDMs were incubated with TIPTP for the indicated times at the indicated TIPTP concentrations (upper). WCLs were used for IB with α22phox, αRubicon, or αActin (lower). (c–f) LPS (100 ng/ml)-primed BMDMs were treated with compounds for 1 h, and then activated with ATP (1 mM) for 30 min. (c) NADPH oxidase activity. (d) FACS analysis for superoxide and hydrogen peroxide (upper). Quantitative analysis of mean fluorescence intensities of ROS (lower). (e) BMDMs were incubated with increasing concentrations of compound 1 and TIPTP (com 2) (***). IP with αRubicon, followed by IB with αp22phox, αBeclin-1, αUVRAG, αRubicon. […] (f) Culture supernatants were harvested and analyzed for cytokines by ELISA. […]

[2] = Plasma stability assay; format: in vitro ADME; conditions: 37 °C
Procedure: Human plasma in each culture tube, treated with test compound (10 μM), was incubated at 37 °C for 0, 30 and 120 min. At the determined period of time, internal standard solution of chlopropamide in acetonitrile was added into each culture tube and then tubes were vortexed for 5 min, and then centrifuged for 5 min (14,000 rpm, 4 °C). The supernatant was then injected into LC-MS/MS system to analyze the plasma stability of the tested compound.

[3] = Microsomal stability assay (human liver microsomes); format: in vitro ADME
Procedure: To human liver microsomes (0.5 mg/mL) were added 0.1 M phosphate buffer (pH 7.4) and tested compounds (1 μM). After incubation at 37 °C for 5 min, NADPH generation system solution was added and incubated at 37 °C for 30 min. To terminate reaction, acetonitrile including internal standard (chloprapamide) was added, and the solution was centrifuged for 5 min (14,000 rpm, 4 °C). The supernatant was then injected into the LC-MS/MS system to analyze the microsomal stability of the tested compound.

[4] = tested on: synoviocytes from RA patients; experiment: Synoviocytes from RA patients ex vivo (co-IP, confocal, ELISA, immunoblot); format: cell-based, human
Excerpt: Synovial tissue specimens were obtained from all female patients with RA (n = 16, 60.5 years ± 6.0) or OA (n = 10, 59.5 years ± 7.2) during open synovectomy or joint replacement surgery at Hanyang University Hospital. All patients gave informed consent, and the procedure was approved by the Ethics Committee of Hanyang University Hospital approved this study (2017-05-003). This study was approved by the bioethics committee of The Red Cross (Seoul, South Korea), which oversees studies using samples from human subjects, and all methods were performed in accordance with the relevant guidelines and regulations.
Immunoblot and immunoprecipitation assays were performed as described previously[18],[23]. For immunoprecipitation, cells were harvested and then lysed in NP-40 buffer supplemented with a complete protease inhibitor cocktail (Roche). After pre-clearing with protein A/G agarose beads (GE Healthcare Life Science) for 1 h at 4 °C, whole-cell lysates were used for immunoprecipitation with the indicated antibodies. Generally, 1–4 μg of commercial antibody was added to 1 ml of cell lysates and incubated at 4 °C for 8 to 12 h. After the addition of protein A/G agarose beads for 6 h, immunoprecipitants were extensively washed with lysis buffer and eluted with SDS loading buffer by boiling for 5 min.
Cell culture supernatants, mice sera and synovial fluid were analyzed for cytokine content using the BD OptEIA ELISA set (BD Pharmingen) for the detection of TNF-α, IL-6, IL-1β, and IL-18. All assays were performed as recommended by the manufacturer.
Figure 6 TIPTP is active for cells from healthy humans or patients with RA. (a and b) LPS-primed human monocytes were treated with TIPTP (0.01, 0.1, 1 μM) for 30 min, and then activated with ATP for the 30 min. (a) IP with αp22phox or αRubicon, followed by IB with αRubicon or αp22phox. Loading control was used for IB with αActin. (b) Culture supernatants were harvested and analyzed for cytokines by ELISA (left). […] (e) Culture supernatants were harvested and analyzed for cytokines by ELISA (left). […]

SMILES: C[C@@H](Oc1cccc(-n2cc3c(n2)CCCC3)c1)C(=O)Nc1nnc(C(F)(F)F)s1 [TIPTP, (R)-2-(3-(4,5,6,7-tetrahydro-2H-indazol-2-yl)phenoxy)-N-(5-(trifluoromethyl)-1,3,4-thiadiazol-2-yl)propanamide]
- ROS (O2− and H2O2) generation [1]: inhibited in a dose-dependent manner
- Human plasma stability (% remaining after 30 min) ([2]; 10 μM, 30 min, listed as TIPTP (2)): 97.4%
- Human plasma stability (% remaining after 2 h) ([2]; 10 μM, 2 h, listed as TIPTP (2)): 93.8%
- remaining at 0.5 h, 10 μM ([2]; human, plasma, 30 min, read-out: Human plasma stability (% remaining after 30 min)): 97%
- remaining at 2 h, 10 μM ([2]; human, plasma, 2 h, read-out: Human plasma stability (% remaining after 2 h)): 94%
- metabolism in human hepatic microsomes ([3]; in words): easily metabolized
- remaining at 0.5 h, 1 μM ([3]; pH 7.4, human liver microsomes 0.5 mg/mL, 1 μM, 30 min, read-out: Human liver microsomal stability (% remaining after 30 min)): 4.4%
- p22phox–Rubicon interaction ([4]; RA patient cells, WB and confocal (Fig. 6c,d)): efficiently inhibit
- p22phox-NOX2, NOX4, or NOX5 interaction ([4]; RA patient synoviocytes (Supplemental Fig. 7)): not inhibit
- caspase-1 activation, and IL-1β and IL-18 production ([4]; freshly isolated RA synoviocytes without NLRP3 agonists (Fig. 6e)): inhibited in a dose-dependent manner
